Data set [1] deals with T1, recombinant human secreted phospholipase A2 (Homo sapiens, UniProt P14555).
T1 sequence (P14555 21-144): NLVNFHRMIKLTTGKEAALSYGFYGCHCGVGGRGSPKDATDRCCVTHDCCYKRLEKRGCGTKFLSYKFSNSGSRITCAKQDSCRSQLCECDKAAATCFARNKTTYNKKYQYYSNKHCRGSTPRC
Put plainly: sPLA2 Chromogenic Assay (Assay 1). The following applies: diheptanoyl thio-PC substrate, pH 7.5, 40° C. for 30 minutes, absorbance at 405 nanometers. Type of data set: biochemical.
Experimental: The following chromogenic assay procedure was used to identify and evaluate inhibitors of recombinant human secreted phospholipase A2. The assay described herein has been adapted for high volume screening using 96 well microtiter plates.
A measured volume of racemic dipheptanoyl thio PC supplied in chloroform at a concentration of 100 mg/ml is taken to dryness and redissolved in 10 millimolar TRITON X-100™ nonionic detergent aqueous solution. Reaction Buffer is added to the solution, then DTNB to give the Reaction Mixture.
The reaction mixture thus obtained contains 1 mM diheptanoyl thio-PC substrate, 0.29 mm Triton X-100™ detergent, and 0.12 mm DTMB in a buffered aqueous solution at pH 7.5.
1. Add 0.2 ml reaction mixture to all wells;
2. Add 10 ul test compound (or solvent blank) to appropriate wells, mix 20 seconds;
3. Add 50 nanograms of sPLA2 (10 microliters) to appropriate wells;
4. Incubate plate at 40° C. for 30 minutes;
All compounds were tested in triplicate. […] Each sample was titrated in triplicate and result values were averaged for plotting and calculation of IC50 values.

Experimental findings from patent publication US6645976B1 (Eli Lilly and Company, priority 1994, dated 2003) are described below.

With `CCc1c(C(=O)C(N)=O)c2c(OCC(=O)OC)cccn2c1Cc1sccc1-c1cccs1` [Compound 51l, 2-(8-(Carbomethoxymethyloxy)-2-ethyl-3-((3-thiophen-2-yl)thiophen-2-ylmethyl)indolizin-1-yl)glyoxylamide], the melting point fell in the range of 176 to 177 °C. Besides, the IC50 in data set [1] was 96 nM.
On the same counts, the results for `Cc1c(C(=O)C(N)=O)c2c(OCc3ccccn3)cccn2c1Cc1ccccc1-c1ccccc1` [Compound 59n, 2-(3-Biphenyl-2-ylmethyl-2-methyl-8-(pyridin-2-ylmethoxy)-indolizin-1-yl)-glyoxylamide] are 196 to 197 °C and 600 nM.
`CCCC(CCC)Cc1c(CC)c(C(=O)C(N)=O)c2c(OCC(=O)O)cccn12` [Compound 52f, 2-(8-Carboxymethyloxy-2-ethyl-3-(2-propylpentyl)indolizin-1-yl)glyoxylamide] yielded a melting point of 176 to 177 °C. The IC50 in data set [1] came to 17 nM.
In the same order, the values of `Cc1c(C(=O)C(N)=O)c2c(OCc3ccc4ccccc4n3)cccn2c1Cc1ccccc1-c1ccccc1` [Compound 59p, 2-(3-Biphenyl-2-ylmethyl-2-methyl-8-(quinolin-2-ylmethoxy)-indolizin-1-yl)-glyoxylamide] are 165 to 167 °C and 200 nM.
In the same order, the values of `CCc1c(C(=O)C(N)=O)c2c(OCC(=O)OCC(C)=O)cccn2c1Cc1ccccc1-c1ccccc1` [Compound 59k, 2-(3-(Biphenyl-2-yl-methyl)-2-ethyl-8-(2-oxopropyloxycarbonylmethoxy)indolizine-1-yl)glyoxylamide] are 159 to 162 °C and 113 nM.
On the same counts, the results for `CC(C)(C)c1c(C(=O)C(N)=O)c2c(OCC(=O)O)cccn2c1Cc1ccccc1-c1ccccc1` [Compound 58e, 2-(2-t-Butyl-8-carboxymethoxyl-3-(o-phenylbenzyl)indlolin-1-yl)glyoxylamide] are 221 to 222 °C and 100 nM.
The compound `COC(=O)COc1cccn2c(CC3CCCCC3)c(C)c(C(=O)C(N)=O)c12` [Compound 51t] came in with a melting point of 177 to 178 °C. The IC50 in data set [1] worked out at 130 nM.
Compound `CCc1c(CC(N)=O)c2c(OCC(=O)OCc3ccccc3)cccn2c1Cc1cccc(Cl)c1` [Compound 21y, 2-(8-(Benzyloxycarbonylmethyloxy)-3-(m-chlorobenzyl)-2-ethylindolizin-1-yl)acetamide] gave a melting point of 157 to 158 °C. Moreover, the IC50 in data set [1] was determined as 350 nM.
As for `CCc1c(C(=O)C(N)=O)c2c(OCC(=O)OC)cccn2c1Cc1ccccc1Cc1ccccc1` [Compound 51j], the melting point lay in the range of 190 to 191 °C. The IC50 in data set [1] was 20 nM.
In the same order, the values of `CCc1c(C(=O)C(N)=O)c2c(OCC(=O)OC(C)(C)C)cccn2c1Cc1ccccc1` [Compound 38a, (3-Benzyl-8-(t-butoxycarbonylmethyloxy)-2-ethylindolizin-1-yl)glyoxylamide] are 161 to 162 °C and 52 nM.
On the same counts, the results for `Cc1c(C(=O)C(N)=O)c2c(OCc3ccncc3)cccn2c1Cc1ccccc1-c1ccccc1` [Compound 59o, 2-(3-Biphenyl-2-ylmethyl-2-methyl-8-(pyridin-4-ylmethoxy)-indolizin-1-yl)-glyoxylamide] are 195 to 197 °C and 490 nM.
In the same order, the values of `CCOC(=O)COc1cccn2c(Cc3ccccc3)c(CC)c(C(=O)C(N)=O)c12` [Compound 37a, (3-Benzyl-8-(carbethoxymethyloxy)-2-ethylindolizin-1-yl)glyoxylamide] are 191 to 192 °C and 44 nM.
Turning to `CCOC(=O)COc1cccn2c(Cc3ccccc3-c3ccccc3)c(CC)c(C(=O)C(N)=O)c12` [Compound 37d, (8-(Carbethoxymethyloxy)-2-ethyl-3-(o-phenylbenzyl)indolizin-1-yl)glyoxylamide], the melting point lay within 127 to 129 °C. Besides, the IC50 in data set [1] was 13 nM.
